Measured values reported in article PMC6540285, “Evaluation of Protein Kinase Inhibitors with PLK4 Cross-Over Potential in a Pre-Clinical Model of Cancer” (International Journal of Molecular Sciences, 2019).

Assays:
ABL1 = ABL1 (Homo sapiens, UniProt P00519); test: SelectScreen kinase profiling, ZLYTE; assay type: biochemical; settings: ABL1, 10 µM
ABL1 F317L = ABL1 F317L (Homo sapiens, UniProt P00519, F317L); test: SelectScreen kinase profiling, ZLYTE; assay type: biochemical
ABL1 H396P = ABL1 H396P (Homo sapiens, UniProt P00519, H396P); test: SelectScreen kinase profiling, LanthaScreen binding
ABL1 M351T = ABL1 M351T (Homo sapiens, UniProt P00519, M351T); test: as above
ACVRL1 (ALK1) = ACVRL1 (ALK1) (Homo sapiens, UniProt P37023); test: as above
AKT3 (PKB gamma) = AKT3 (PKB gamma) (Homo sapiens, UniProt Q9Y243); test: SelectScreen kinase profiling, ZLYTE; assay type: biochemical
AMPK (A2/B2/G1) = AMPK (A2/B2/G1) (Homo sapiens, UniProt P54646); test: SelectScreen kinase profiling, LanthaScreen binding
AURKB (Aurora B) = AURKB (Aurora B) (Homo sapiens, UniProt Q96GD4); test: SelectScreen kinase profiling, ZLYTE; assay type: biochemical
BMPR1A (ALK3) = BMPR1A (ALK3) (Homo sapiens, UniProt P36894); test: SelectScreen kinase profiling, LanthaScreen binding
BMPR1B (ALK6) = BMPR1B (ALK6) (Homo sapiens, UniProt O00238); test: as above
BRAF V599E = BRAF V599E (Homo sapiens, UniProt P15056, V600E); test: SelectScreen kinase profiling, ZLYTE; assay type: biochemical
BRSK1 (SAD1) = BRSK1 (SAD1) (Homo sapiens, UniProt Q8TDC3); test: SelectScreen kinase profiling, ZLYTE; assay type: biochemical
CAMK2A (CaMKII alpha) = CAMK2A (CaMKII alpha) (Homo sapiens, UniProt Q9UQM7); test: SelectScreen kinase profiling, ZLYTE; assay type: biochemical
CDK13/cyclin K = CDK13/cyclin K (Homo sapiens, UniProt Q14004); test: SelectScreen kinase profiling, LanthaScreen binding; settings: read-out: % Inhibition Avg
Chain of CDK13/cyclin K (Q14004 whole entry): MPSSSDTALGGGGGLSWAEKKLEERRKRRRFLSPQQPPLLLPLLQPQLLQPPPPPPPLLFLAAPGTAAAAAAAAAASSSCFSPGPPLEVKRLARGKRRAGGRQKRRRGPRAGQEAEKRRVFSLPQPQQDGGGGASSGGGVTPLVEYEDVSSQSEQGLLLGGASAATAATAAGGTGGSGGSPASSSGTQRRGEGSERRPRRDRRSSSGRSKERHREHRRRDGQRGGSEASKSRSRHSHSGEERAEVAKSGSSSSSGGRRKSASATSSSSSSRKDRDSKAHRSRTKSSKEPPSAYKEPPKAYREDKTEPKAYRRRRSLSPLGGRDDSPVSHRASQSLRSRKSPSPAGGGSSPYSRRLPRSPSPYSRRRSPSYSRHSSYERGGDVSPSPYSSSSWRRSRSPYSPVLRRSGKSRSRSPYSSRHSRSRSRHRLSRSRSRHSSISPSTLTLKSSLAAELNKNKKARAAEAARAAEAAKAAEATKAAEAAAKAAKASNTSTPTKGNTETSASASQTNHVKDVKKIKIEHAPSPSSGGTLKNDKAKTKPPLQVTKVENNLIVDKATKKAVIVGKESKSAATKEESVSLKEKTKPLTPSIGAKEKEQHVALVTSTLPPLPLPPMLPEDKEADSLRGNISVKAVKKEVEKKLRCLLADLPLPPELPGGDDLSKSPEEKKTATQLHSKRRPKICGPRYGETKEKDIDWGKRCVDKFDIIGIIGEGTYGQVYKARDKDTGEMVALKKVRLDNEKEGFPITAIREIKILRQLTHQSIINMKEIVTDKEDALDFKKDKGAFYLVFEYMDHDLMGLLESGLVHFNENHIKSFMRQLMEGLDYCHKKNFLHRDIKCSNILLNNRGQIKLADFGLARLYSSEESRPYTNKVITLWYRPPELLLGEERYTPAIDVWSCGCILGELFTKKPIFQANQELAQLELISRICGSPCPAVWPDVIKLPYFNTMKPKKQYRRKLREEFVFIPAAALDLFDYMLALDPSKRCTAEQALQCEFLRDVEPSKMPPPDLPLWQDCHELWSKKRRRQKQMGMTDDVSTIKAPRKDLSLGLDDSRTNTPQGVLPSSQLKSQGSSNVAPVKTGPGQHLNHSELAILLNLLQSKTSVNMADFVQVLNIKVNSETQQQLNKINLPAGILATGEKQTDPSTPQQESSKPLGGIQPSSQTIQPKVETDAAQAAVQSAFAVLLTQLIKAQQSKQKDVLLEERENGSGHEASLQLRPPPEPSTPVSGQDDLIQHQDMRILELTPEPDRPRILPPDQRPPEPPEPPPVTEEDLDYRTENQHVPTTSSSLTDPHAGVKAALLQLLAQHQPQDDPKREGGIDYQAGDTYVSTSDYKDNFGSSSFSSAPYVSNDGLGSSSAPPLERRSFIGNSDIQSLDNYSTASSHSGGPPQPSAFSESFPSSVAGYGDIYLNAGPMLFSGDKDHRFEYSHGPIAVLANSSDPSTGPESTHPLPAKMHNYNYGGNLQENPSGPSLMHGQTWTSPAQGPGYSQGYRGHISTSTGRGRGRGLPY
Chain of CDK13/cyclin K (O75909 whole entry partner): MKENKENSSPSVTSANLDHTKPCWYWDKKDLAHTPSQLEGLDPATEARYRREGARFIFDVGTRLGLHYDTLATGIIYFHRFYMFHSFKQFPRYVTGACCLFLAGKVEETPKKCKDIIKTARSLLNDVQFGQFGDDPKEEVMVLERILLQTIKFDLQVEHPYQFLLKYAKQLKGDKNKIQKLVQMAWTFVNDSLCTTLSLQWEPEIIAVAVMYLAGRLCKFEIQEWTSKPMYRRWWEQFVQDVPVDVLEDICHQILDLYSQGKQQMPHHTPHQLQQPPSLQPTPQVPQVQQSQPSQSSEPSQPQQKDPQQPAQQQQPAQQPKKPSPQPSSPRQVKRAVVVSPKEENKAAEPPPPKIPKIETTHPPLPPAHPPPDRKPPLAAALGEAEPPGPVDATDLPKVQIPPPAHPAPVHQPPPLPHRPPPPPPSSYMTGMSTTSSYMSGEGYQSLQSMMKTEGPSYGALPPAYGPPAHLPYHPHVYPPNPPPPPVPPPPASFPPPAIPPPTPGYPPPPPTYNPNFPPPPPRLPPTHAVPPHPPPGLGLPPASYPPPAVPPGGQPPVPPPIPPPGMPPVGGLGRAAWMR

CSNK1A1L = CSNK1A1L (Homo sapiens, UniProt Q8N752); test: SelectScreen kinase profiling, ZLYTE; assay type: biochemical
Chain of CSNK1A1L (Q8N752 whole entry): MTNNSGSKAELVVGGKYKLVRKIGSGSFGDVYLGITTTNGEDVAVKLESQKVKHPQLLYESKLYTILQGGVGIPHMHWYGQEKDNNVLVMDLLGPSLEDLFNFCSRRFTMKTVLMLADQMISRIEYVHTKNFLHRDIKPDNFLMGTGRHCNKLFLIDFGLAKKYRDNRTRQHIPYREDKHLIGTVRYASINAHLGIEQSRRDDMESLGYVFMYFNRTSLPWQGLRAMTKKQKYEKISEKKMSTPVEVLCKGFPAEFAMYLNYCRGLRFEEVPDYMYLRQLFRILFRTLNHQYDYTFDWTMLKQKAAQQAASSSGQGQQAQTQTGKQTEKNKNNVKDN

EEF2K = EEF2K (Homo sapiens, UniProt O00418); test: SelectScreen kinase profiling, ZLYTE; assay type: biochemical
FGFR4 = FGFR4 (Homo sapiens, UniProt P22455); test: SelectScreen kinase profiling, ZLYTE; assay type: biochemical; settings: FGFR4, 10 µM
FLT3 = FLT3 (Homo sapiens, UniProt P36888); test: SelectScreen kinase profiling, ZLYTE; assay type: biochemical; settings: FLT3, 10 µM
FLT3 D835Y = FLT3 D835Y (Homo sapiens, UniProt P36888, D835Y); test: SelectScreen kinase profiling, ZLYTE; assay type: biochemical
JAK2 JH1 JH2 V617F = molecular target: T1, JAK2 JH1 JH2 V617F (Homo sapiens, UniProt O60674, V617F); test: SelectScreen kinase profiling, ZLYTE; assay type: biochemical
T1 construct: JAK2 JH1 JH2 V617F
T1 sequence (O60674 532-1132 V617F limits assumed): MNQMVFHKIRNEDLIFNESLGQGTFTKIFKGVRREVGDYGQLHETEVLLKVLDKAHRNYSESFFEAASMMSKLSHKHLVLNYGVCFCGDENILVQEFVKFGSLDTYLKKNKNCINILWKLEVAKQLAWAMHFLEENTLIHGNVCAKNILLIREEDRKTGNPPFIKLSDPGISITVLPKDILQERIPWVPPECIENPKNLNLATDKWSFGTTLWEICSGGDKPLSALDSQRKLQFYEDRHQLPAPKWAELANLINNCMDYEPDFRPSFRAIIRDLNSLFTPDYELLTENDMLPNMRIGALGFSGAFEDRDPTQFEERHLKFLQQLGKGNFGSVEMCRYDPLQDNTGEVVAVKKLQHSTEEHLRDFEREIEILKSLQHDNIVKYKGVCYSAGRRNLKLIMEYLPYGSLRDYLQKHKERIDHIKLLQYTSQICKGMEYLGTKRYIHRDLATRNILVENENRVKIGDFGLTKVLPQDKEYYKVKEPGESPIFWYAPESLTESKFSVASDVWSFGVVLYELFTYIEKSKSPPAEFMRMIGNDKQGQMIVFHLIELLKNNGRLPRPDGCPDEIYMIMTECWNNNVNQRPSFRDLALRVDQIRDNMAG

MAP2K4 (MEK4) = MAP2K4 (MEK4) (Homo sapiens, UniProt P45985); test: SelectScreen kinase profiling, LanthaScreen binding
NEK8 = NEK8 (Homo sapiens, UniProt Q86SG6); test: as above; settings: NEK8, 10 µM
Chain of NEK8 (Q86SG6 whole entry): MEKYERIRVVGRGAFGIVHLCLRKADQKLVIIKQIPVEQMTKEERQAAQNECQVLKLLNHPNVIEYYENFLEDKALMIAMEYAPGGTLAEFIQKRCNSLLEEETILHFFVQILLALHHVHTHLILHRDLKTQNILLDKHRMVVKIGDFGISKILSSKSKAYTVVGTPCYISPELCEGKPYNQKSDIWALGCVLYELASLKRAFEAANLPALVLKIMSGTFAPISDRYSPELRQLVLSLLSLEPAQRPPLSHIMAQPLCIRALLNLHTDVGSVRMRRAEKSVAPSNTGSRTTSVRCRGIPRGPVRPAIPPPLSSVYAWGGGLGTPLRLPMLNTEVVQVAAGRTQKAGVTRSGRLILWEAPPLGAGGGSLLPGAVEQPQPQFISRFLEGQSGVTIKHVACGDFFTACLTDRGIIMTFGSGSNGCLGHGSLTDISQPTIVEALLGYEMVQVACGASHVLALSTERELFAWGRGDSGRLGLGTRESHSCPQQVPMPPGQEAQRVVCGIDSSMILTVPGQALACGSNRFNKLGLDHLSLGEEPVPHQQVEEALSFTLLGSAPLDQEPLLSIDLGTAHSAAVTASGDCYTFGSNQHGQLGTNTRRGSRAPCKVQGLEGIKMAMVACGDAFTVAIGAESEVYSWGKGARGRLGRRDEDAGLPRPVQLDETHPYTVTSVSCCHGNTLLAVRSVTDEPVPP

PLK4 = molecular target: T2, PLK4 (Homo sapiens, UniProt O00444); test: as above; settings: PLK4, 10 µM
T2 sequence (O00444 1-970): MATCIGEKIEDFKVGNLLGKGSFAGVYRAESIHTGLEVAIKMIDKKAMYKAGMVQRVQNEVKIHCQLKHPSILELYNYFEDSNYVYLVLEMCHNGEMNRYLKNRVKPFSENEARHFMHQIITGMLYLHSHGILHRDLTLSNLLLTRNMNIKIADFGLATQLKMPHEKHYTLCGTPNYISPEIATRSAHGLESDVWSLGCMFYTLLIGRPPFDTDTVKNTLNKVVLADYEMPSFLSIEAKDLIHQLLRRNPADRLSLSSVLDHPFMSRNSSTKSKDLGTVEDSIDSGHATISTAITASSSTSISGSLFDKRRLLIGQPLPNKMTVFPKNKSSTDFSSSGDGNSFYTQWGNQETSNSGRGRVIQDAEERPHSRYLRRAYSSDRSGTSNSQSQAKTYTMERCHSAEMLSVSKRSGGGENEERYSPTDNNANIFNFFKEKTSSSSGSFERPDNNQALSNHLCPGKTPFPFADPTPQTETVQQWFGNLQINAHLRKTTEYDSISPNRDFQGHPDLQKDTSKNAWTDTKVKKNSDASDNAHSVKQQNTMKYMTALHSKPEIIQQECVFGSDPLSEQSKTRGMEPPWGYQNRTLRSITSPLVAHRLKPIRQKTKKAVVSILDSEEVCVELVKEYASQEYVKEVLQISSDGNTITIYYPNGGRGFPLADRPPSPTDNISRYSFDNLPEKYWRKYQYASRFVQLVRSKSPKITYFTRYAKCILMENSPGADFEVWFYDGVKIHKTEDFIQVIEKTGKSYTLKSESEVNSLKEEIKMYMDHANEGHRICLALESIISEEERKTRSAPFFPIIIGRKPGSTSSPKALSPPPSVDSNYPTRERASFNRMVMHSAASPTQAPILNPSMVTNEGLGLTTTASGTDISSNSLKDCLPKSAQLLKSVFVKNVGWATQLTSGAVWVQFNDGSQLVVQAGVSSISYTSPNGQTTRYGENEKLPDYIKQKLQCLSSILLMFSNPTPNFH

PRKCI (PKC iota) = PRKCI (PKC iota) (Homo sapiens, UniProt P41743); test: SelectScreen kinase profiling, ZLYTE; assay type: biochemical
PRKD1 (PKC mu) = PRKD1 (PKC mu) (Homo sapiens, UniProt Q15139); test: SelectScreen kinase profiling, ZLYTE; assay type: biochemical
RET V804L = RET V804L (Homo sapiens, UniProt P07949, V804L); test: SelectScreen kinase profiling, ZLYTE; assay type: biochemical
Chain of RET V804L (P07949 29-1114 V804L): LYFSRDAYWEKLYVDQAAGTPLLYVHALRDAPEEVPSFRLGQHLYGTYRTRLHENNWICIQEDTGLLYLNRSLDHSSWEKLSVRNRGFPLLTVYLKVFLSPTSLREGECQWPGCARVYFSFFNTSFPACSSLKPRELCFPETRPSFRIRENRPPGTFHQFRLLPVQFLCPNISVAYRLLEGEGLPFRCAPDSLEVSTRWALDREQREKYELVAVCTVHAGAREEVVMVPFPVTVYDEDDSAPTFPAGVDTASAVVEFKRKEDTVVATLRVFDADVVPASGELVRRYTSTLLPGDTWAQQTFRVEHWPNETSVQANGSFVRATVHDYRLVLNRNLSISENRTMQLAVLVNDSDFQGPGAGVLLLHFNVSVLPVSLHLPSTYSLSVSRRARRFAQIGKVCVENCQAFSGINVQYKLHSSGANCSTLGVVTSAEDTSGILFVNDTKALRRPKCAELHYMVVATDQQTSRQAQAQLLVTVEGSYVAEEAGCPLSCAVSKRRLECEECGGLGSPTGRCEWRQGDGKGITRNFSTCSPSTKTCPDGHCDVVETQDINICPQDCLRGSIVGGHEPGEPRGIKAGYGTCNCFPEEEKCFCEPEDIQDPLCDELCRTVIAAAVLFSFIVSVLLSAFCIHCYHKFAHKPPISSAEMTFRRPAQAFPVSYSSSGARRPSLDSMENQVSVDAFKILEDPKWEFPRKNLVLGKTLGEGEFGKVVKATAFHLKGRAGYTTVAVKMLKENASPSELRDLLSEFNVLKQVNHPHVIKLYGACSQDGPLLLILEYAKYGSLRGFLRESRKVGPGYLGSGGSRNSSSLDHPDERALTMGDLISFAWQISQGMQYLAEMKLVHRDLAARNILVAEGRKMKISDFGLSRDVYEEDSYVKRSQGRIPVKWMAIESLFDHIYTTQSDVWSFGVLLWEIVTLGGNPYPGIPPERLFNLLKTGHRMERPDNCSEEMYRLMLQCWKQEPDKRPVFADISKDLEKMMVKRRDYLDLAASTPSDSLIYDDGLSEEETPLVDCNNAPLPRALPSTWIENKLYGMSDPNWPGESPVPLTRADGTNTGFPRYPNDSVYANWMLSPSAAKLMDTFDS

RET Y791F = RET Y791F (Homo sapiens, UniProt P07949, Y791F); test: SelectScreen kinase profiling, ZLYTE; assay type: biochemical
Chain of RET Y791F (P07949 29-1114 Y791F): as the sequence (P07949 29-1114 V804L) above, with Y763F, L776V counted along it

STK32B (YANK2) = STK32B (YANK2) (Homo sapiens, UniProt Q9NY57); test: SelectScreen kinase profiling, LanthaScreen binding

Structure (SMILES): O=C(c1ccc(/C=C/c2n[nH]c3ccccc23)cc1)N1CCNCC1 [KW-2449]
- inhibition at 10 µM (ABL1): 100%
- inhibition at 10 µM (ABL1 F317L): 98%
- inhibition at 10 µM (ABL1 H396P): 78%
- inhibition at 10 µM (ABL1 M351T): 52%
- inhibition at 10 µM (ACVRL1 (ALK1)): 86%
- inhibition at 10 µM (AKT3 (PKB gamma)): 11%
- inhibition at 10 µM (AMPK (A2/B2/G1)): 75%
- inhibition at 10 µM (AURKB (Aurora B)): 102%
- inhibition at 10 µM (BMPR1A (ALK3)): 98%
- inhibition at 10 µM (BMPR1B (ALK6)): 90%
- inhibition at 10 µM (BRAF V599E): 60%
- inhibition at 10 µM (BRSK1 (SAD1)): 99%
- inhibition at 10 µM (CAMK2A (CaMKII alpha)): 67%
- inhibition at 10 µM (CDK13/cyclin K): 70%
- inhibition at 10 µM (CSNK1A1L): 20%
- inhibition at 10 µM (EEF2K): -1%
- inhibition at 10 µM (FGFR4): 70%
- inhibition at 10 µM (FLT3): 100%
- inhibition at 10 µM (FLT3 D835Y): 100%
- inhibition at 10 µM (JAK2 JH1 JH2 V617F): 94%
- inhibition at 10 µM (MAP2K4 (MEK4)): 79%
- inhibition at 10 µM (NEK8): 30%
- inhibition at 10 µM (PLK4): 61%
- inhibition at 10 µM (PRKCI (PKC iota)): 7%
- inhibition at 10 µM (PRKD1 (PKC mu)): 97%
- inhibition at 10 µM (RET V804L): 100%
- inhibition at 10 µM (RET Y791F): 100%
- inhibition at 10 µM (STK32B (YANK2)): 61%
